Reference: PubChem BioAssay (NCI)
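Grown in 96-well plates, cells were treated for 48 hours with each compound at five concentrations. Insufficient inhibition: endpoint recorded as highest concentration tested. GI50 is the concentration that inhibits growth by half. Definition used: TGI = concentration required for complete inhibition of growth.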

Tests used:
Assay in all cases: NCI anticancer screen, dose series, 48 h; in the data active = GI50 below about 0.43 µM; inactive = the rest
[1] = tested on: ACHN renal
[2] = tested on: COLO 205 colon
[3] = tested on: HCT-15 colon
[4] = tested on: HOP-92 NSCLC
[5] = tested on: TK-10 renal
[6] = tested on: OVCAR-3 ovarian
[7] = tested on: SNB-19 CNS
[8] = tested on: KM12 colon
[9] = tested on: K-562 leukemia
[10] = tested on: HOP-62 NSCLC
[11] = tested on: M14 melanoma
[12] = tested on: SF-295 CNS
[13] = tested on: OVCAR-4 ovarian
[14] = tested on: MALME-3M melanoma
[15] = tested on: HCT-116 colon
[16] = tested on: OVCAR-8 ovarian
[17] = tested on: SF-539 CNS
[18] = tested on: SK-MEL-28 melanoma
[19] = tested on: UACC-62 melanoma
[20] = tested on: SW-620 colon
[21] = tested on: MOLT-4 leukemia
[22] = tested on: SK-MEL-5 melanoma
[23] = tested on: SK-MEL-2 melanoma
[24] = tested on: HCC-2998 colon
[25] = tested on: HT29 colon
[26] = tested on: EKVX NSCLC
[27] = tested on: RXF 393 renal
[28] = tested on: CAKI-1 renal
[29] = tested on: HL-60(TB) leukemia
[30] = tested on: SR leukemia
[31] = tested on: SK-OV-3 ovarian
[32] = tested on: NCI-H23 lung
[33] = tested on: SF-268 CNS
[34] = tested on: KM20L2 colon
[35] = tested on: IGROV1 ovarian
[36] = tested on: NCI-H522 lung
[37] = tested on: OVCAR-5 ovarian
[38] = tested on: NCI-H226 lung
[39] = tested on: U251 CNS
[40] = tested on: UO-31 renal
[41] = tested on: NCI-H460 lung
[42] = tested on: A549 NSCLC
[43] = tested on: UACC-257 melanoma
[44] = tested on: SNB-75 CNS
[45] = tested on: LOX IMVI melanoma
[46] = tested on: LXFL 529 NSCLC
[47] = tested on: DMS 114 small cell lung
[48] = tested on: CCRF-CEM leukemia
[49] = tested on: M19-MEL melanoma
[50] = tested on: DMS 273 small cell lung
[51] = tested on: 786-0 renal
[52] = tested on: XF 498 CNS
[53] = tested on: A498 renal
[54] = tested on: SN12C renal
[55] = tested on: RPMI-8226 leukemia
[56] = tested on: SNB-78 CNS
[57] = tested on: DLD-1 colon

O=C(N/N=C/c1cc(Cl)cc(Cl)c1[O-])c1ccccc1O.O=C(N/N=C/c1cc(Cl)cc(Cl)c1[O-])c1ccccc1O.[Ni+2]
2.67 µM: TGI [43]
1.5 µM: TGI [15]
2.21 µM: TGI [1]
1.92 µM: TGI [3]
1.18 µM: TGI [22]
2.09 µM: TGI [10] | TGI [18]
2.36 µM: TGI [14]
29.7 µM: TGI [21]
10.1 µM: TGI [40]
2.15 µM: TGI [34]
0.835 µM: TGI [6]
0.472 µM: TGI [29]
inactive: GI50 [2] 0.794 µM | GI50 [4] 0.495 µM | GI50 [8] 0.494 µM | GI50 [14] 0.759 µM | GI50 [15] 0.439 µM | GI50 [26] 1.33 µM | GI50 [32] 0.456 µM
2.1 µM: TGI [27]
7.81 µM: TGI [5]
8.85 µM: TGI [7]
1.09 µM: TGI [37]
0.693 µM: TGI [19]
active: GI50 [17] 0.297 µM | GI50 [23] 0.329 µM | GI50 [42] 0.402 µM
1.46 µM: TGI [30]
5.66 µM: TGI [8]
3.93 µM: TGI [31]
17.4 µM: TGI [9]
1.84 µM: TGI [11]
1.71 µM: TGI [32]
3.4 µM: TGI [25]
1.35 µM: TGI [23]
1.81 µM: TGI [45]
5.28 µM: TGI [26]
7.48 µM: TGI [44]
0.794 µM: GI50 [34]
11.6 µM: TGI [2]
0.923 µM: TGI [38]
1.56 µM: TGI [24]
1.98 µM: TGI [39]
1.41 µM: TGI [16] | TGI [28]
1.79 µM: TGI [4]
18.5 µM: TGI [33]
1.16 µM: TGI [17]
3.33 µM: TGI [42]
0.823 µM: TGI [36]
1.73 µM: TGI [41]
1.21 µM: TGI [13]
1.97 µM: TGI [20]
1.74 µM: TGI [35]
1.24 µM: TGI [12]

CC(=O)CCCCO
> 100 µM: TGI [1] | TGI [2] | TGI [3] | TGI [4] | TGI [46] | TGI [5] | TGI [47] | TGI [6] | TGI [48] | TGI [49] | TGI [7] | TGI [8] | TGI [9] | TGI [10] | TGI [11] | TGI [12] | TGI [13] | TGI [14] | TGI [50] | TGI [15] | TGI [16] | TGI [17] | TGI [18] | TGI [19] | TGI [20] | TGI [21] | TGI [22] | TGI [23] | TGI [51] | TGI [25] | TGI [26] | TGI [27] | TGI [28] | TGI [52] | TGI [29] | TGI [31] | TGI [53] | TGI [32] | TGI [33] | TGI [35] | TGI [36] | TGI [37] | TGI [54] | TGI [39] | TGI [40] | TGI [41] | TGI [55] | TGI [56] | TGI [42] | TGI [43] | TGI [44] | TGI [45]

CC#CC1/C(=C\C(=O)OC)CCCC1O (stereo not drawn)
> 100 µM: TGI [1] | TGI [3] | TGI [5] | TGI [47] | TGI [6] | TGI [48] | TGI [49] | TGI [7] | TGI [8] | TGI [9] | TGI [10] | TGI [11] | TGI [12] | TGI [13] | TGI [14] | TGI [57] | TGI [50] | TGI [15] | TGI [16] | TGI [17] | TGI [18] | TGI [19] | TGI [20] | TGI [21] | TGI [22] | TGI [23] | TGI [51] | TGI [24] | TGI [25] | TGI [26] | TGI [27] | TGI [28] | TGI [52] | TGI [29] | TGI [30] | TGI [31] | TGI [53] | TGI [32] | TGI [33] | TGI [36] | TGI [37] | TGI [38] | TGI [54] | TGI [39] | TGI [40] | TGI [41] | TGI [56] | TGI [42] | TGI [43] | TGI [44]
